For orientation: T/C means the ratio of treated to control.

Where “and” joins values, the source holds several entries; their conditions need not be identical. Equal entries are not always repeated.

The assay has as its system BDF1 mice, Adenocarcinoma 755 s.c., tumor weight T/C. Put plainly: NCI In Vivo Anticancer Drug Screen. Data for tumor model Adenocarcinoma 755 (subcutaneous) in B6D2F1 (BDF1) mice. Particulars: endpoint: mean tumor weight, higher = larger tumour. The method, boiled down:
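Transplantable tumor implanted; mice dosed with compound or vehicle; survival or tumor size recorded; ratio of treated to vehicle control reported.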

Where [1] appears, read: dose: 50.0 mg/kg/injection, schedule: Q01DX011 (ip), vehicle: carboxymethylcellulose (CMC).

`Nc1ccc2cc3ccccc3cc2c1`: the T/C runs as follows: (dose: 10.0 mg/kg/injection, schedule: Q01DX011 (ip), vehicle: saline) 80 % of control; (dose: 10.5 mg/kg/injection, schedule: Q01DX011 (ip), vehicle: carboxymethylcellulose (CMC)) 62 % of control; (dose: 21.0 mg/kg/injection, schedule: Q01DX011 (ip), vehicle: carboxymethylcellulose (CMC)) 40 % of control; (dose: 21.0 mg/kg/injection, schedule: Q01DX011 (ip), vehicle: saline) 41 % of control; (dose: 42.0 mg/kg/injection, schedule: Q01DX011 (ip), vehicle: saline) 37 % of control; (dose: 84.0 mg/kg/injection, schedule: Q01DX011 (ip), vehicle: saline) 29 % of control.
On to `Nc1ccc2ccccc2c1N=Nc1ccccc1`, for which the T/C was 68 % of control (dose: 25.0 mg/kg/injection, schedule: Q01DX011 (ip), vehicle: carboxymethylcellulose (CMC)); 27 % of control under setting [1]; 34 % of control (dose: 100.0 mg/kg/injection, schedule: Q01DX011 (ip), vehicle: carboxymethylcellulose (CMC)); 25 % of control (dose: 200.0 mg/kg/injection, schedule: Q01DX011 (ip), vehicle: carboxymethylcellulose (CMC)).
For `COC(=O)C1=COC(C)C2CN3CCc4c([nH]c5cc(OC)ccc45)C3CC12` (configuration not stated), the T/C by setting is: (dose: 22.0 mg/kg/injection, schedule: Q01DX011 (ip), vehicle: other) 116 % of control; (dose: 44.0 mg/kg/injection, schedule: Q01DX011 (ip), vehicle: other) 98 % of control; (dose: 87.5 mg/kg/injection, schedule: Q01DX011 (ip), vehicle: other) 80 % of control.
Regarding `OCCn1cnc2c(SCc3ccccc3Cl)ncnc21`, the T/C was 77 % of control (dose: 15.0 mg/kg/injection, schedule: Q01DX011 (ip), vehicle: carboxymethylcellulose (CMC)); 97 % of control (dose: 25.0 mg/kg/injection, schedule: Q01DX011 (ip), vehicle: methylcellulose (MC)); 49 % of control (dose: 30.0 mg/kg/injection, schedule: Q01DX011 (ip), vehicle: carboxymethylcellulose (CMC)); 22 % of control (dose: 60.0 mg/kg/injection, schedule: Q01DX011 (ip), vehicle: carboxymethylcellulose (CMC)); 5 % of control (dose: 150.0 mg/kg/injection, schedule: Q01DX011 (ip), vehicle: methylcellulose (MC)).
As for `CC1CCC(n2cnc3c([N+](C)(C)C)ncnc32)O1` (configuration not stated), the T/C reads like this: (dose: 15.0 mg/kg/injection, schedule: Q01DX011 (ip), vehicle: saline) 58 % of control; (dose: 30.0 mg/kg/injection, schedule: Q01DX011 (ip), vehicle: saline) 35 % of control and 40 % of control; (dose: 60.0 mg/kg/injection, schedule: Q01DX011 (ip), vehicle: saline) 5 % of control; (dose: 120.0 mg/kg/injection, schedule: Q01DX011 (ip), vehicle: saline) 1 % of control.
For the compound `CCC(c1ccc(O)cc1)C(CC)c1ccc(OC)cc1` (configuration not stated), the T/C by setting is: (dose: 5.0 mg/kg/injection, schedule: Q01DX011 (sc), vehicle: steriod suspending solution) 57 % of control; (dose: 10.0 mg/kg/injection, schedule: Q01DX011 (sc), vehicle: steriod suspending solution) 56 % of control; (dose: 20.0 mg/kg/injection, schedule: Q01DX011 (sc), vehicle: steriod suspending solution) 33 % of control; (dose: 31.0 mg/kg/injection, schedule: Q01DX011 (ip), vehicle: olive oil, sesame oil, peanut oil) 33 % of control; (dose: 62.5 mg/kg/injection, schedule: Q01DX011 (ip), vehicle: olive oil, sesame oil, peanut oil) 27 % of control; (dose: 125.0 mg/kg/injection, schedule: Q01DX011 (ip), vehicle: olive oil, sesame oil, peanut oil) 45 % of control. For the same compound, the T/C (dose: 250.0 mg/kg/injection, schedule: Q01DX011 (ip), vehicle: olive oil, sesame oil, peanut oil) is 33 % of control.
For `COc1cc(C(=O)O)nc(SC)n1`, the T/C was 115 % of control (dose: 15.0 mg/kg/injection, schedule: Q01DX011 (ip), vehicle: methylcellulose (MC)); 94 % of control (dose: 31.0 mg/kg/injection, schedule: Q01DX011 (ip), vehicle: methylcellulose (MC)); 88 % of control (dose: 62.0 mg/kg/injection, schedule: Q01DX011 (ip), vehicle: methylcellulose (MC)); 87 % of control (dose: 125.0 mg/kg/injection, schedule: Q01DX011 (ip), vehicle: methylcellulose (MC)).
Regarding `c1ccc(CNc2ncnc3[nH]ncc23)cc1`, the T/C by setting is: (dose: 4.0 mg/kg/injection, schedule: Q01DX011 (ip), vehicle: carboxymethylcellulose (CMC)) 83 % of control; (dose: 8.0 mg/kg/injection, schedule: Q01DX011 (ip), vehicle: carboxymethylcellulose (CMC)) 69 % of control; (dose: 16.0 mg/kg/injection, schedule: Q01DX011 (ip), vehicle: carboxymethylcellulose (CMC)) 22 % of control; (dose: 31.25 mg/kg/injection, schedule: Q01DX011 (ip), vehicle: carboxymethylcellulose (CMC)) 54 % of control.
For `[Br][Hg][CH2]C1COC([CH2][Hg][Br])CO1` (configuration not stated), the T/C runs as follows: (dose: 6.0 mg/kg/injection, schedule: Q01DX011 (ip), vehicle: carboxymethylcellulose (CMC)) 101 % of control; (dose: 12.0 mg/kg/injection, schedule: Q01DX011 (ip), vehicle: carboxymethylcellulose (CMC)) 60 % of control; under setting [1], 27 % of control.
Turning to `COC(=O)C1=CO[C@H](C)[C@@H]2CN3CCc4c([nH]c5ccccc45)[C@@H]3C[C@H]12`, the T/C was 95 % of control (dose: 9.0 mg/kg/injection, schedule: Q01DX011 (ip), vehicle: carboxymethylcellulose (CMC)); 92 % of control (dose: 17.5 mg/kg/injection, schedule: Q01DX011 (ip), vehicle: carboxymethylcellulose (CMC)); 116 % of control (dose: 35.0 mg/kg/injection, schedule: Q01DX011 (ip), vehicle: carboxymethylcellulose (CMC)); 93 % of control (dose: 70.0 mg/kg/injection, schedule: Q01DX011 (ip), vehicle: carboxymethylcellulose (CMC)).
As to `C=CCn1cnc2c(=S)nc[nH]c21`, the T/C by setting is: (dose: 0.37 mg/kg/injection, schedule: Q01DX011 (ip), vehicle: saline) 49 % of control; (dose: 0.5 mg/kg/injection, schedule: Q01DX011 (ip), vehicle: saline) 82 % of control; (dose: 0.75 mg/kg/injection, schedule: Q01DX011 (ip), vehicle: saline) 72 % of control; (dose: 1.0 mg/kg/injection, schedule: Q01DX011 (ip), vehicle: saline) 48 % of control; (dose: 2.0 mg/kg/injection, schedule: Q01DX011 (ip), vehicle: alkali diluted with saline) 7 % of control; (dose: 2.25 mg/kg/injection, schedule: Q01DX011 (ip), vehicle: alkali diluted with saline) 3 % of control. Moreover, the T/C was 5 % of control (dose: 2.75 mg/kg/injection, schedule: Q01DX011 (ip), vehicle: alkali diluted with saline); 9 % of control (dose: 3.0 mg/kg/injection, schedule: Q01DX011 (ip), vehicle: alkali diluted with saline); 1 % of control (dose: 6.0 mg/kg/injection, schedule: Q01DX011 (ip), vehicle: alkali diluted with saline); 2 % of control (dose: 12.5 mg/kg/injection, schedule: Q01DX011 (ip), vehicle: alkali diluted with saline).
As to `O=C(CCBr)N1CCCN(C(=O)CCBr)CC1`, the T/C was 85 % of control (dose: 28.0 mg/kg/injection, schedule: Q01DX011 (ip), vehicle: carboxymethylcellulose (CMC)); 60 % of control (dose: 57.0 mg/kg/injection, schedule: Q01DX011 (ip), vehicle: carboxymethylcellulose (CMC)); 58 % of control and 78 % of control (dose: 57.0 mg/kg/injection, schedule: Q01DX011 (ip), vehicle: methylcellulose (MC)); 16 % of control (dose: 113.0 mg/kg/injection, schedule: Q01DX011 (ip), vehicle: carboxymethylcellulose (CMC)); 35 % of control (dose: 113.0 mg/kg/injection, schedule: Q01DX011 (ip), vehicle: methylcellulose (MC)).
As for `CCC(C)N1C(=O)CCC1=O` (configuration not stated), the T/C is, setting by setting: (dose: 37.5 mg/kg/injection, schedule: Q01DX011 (ip), vehicle: saline) 26 % of control; (dose: 75.0 mg/kg/injection, schedule: Q01DX011 (ip), vehicle: saline) 58 % of control; (dose: 150.0 mg/kg/injection, schedule: Q01DX011 (ip), vehicle: saline) 95 % of control; (dose: 300.0 mg/kg/injection, schedule: Q01DX011 (ip), vehicle: saline) 99 % of control.
Consider `CC1CN1P(=O)(OCCC#N)N1CC1C` (configuration not stated), for which the T/C by setting is: (dose: 28.0 mg/kg/injection, schedule: Q01DX011 (ip), vehicle: saline) 90 % of control; (dose: 56.0 mg/kg/injection, schedule: Q01DX011 (ip), vehicle: saline) 104 % of control; (dose: 113.0 mg/kg/injection, schedule: Q01DX011 (ip), vehicle: saline) 77 % of control; (dose: 225.0 mg/kg/injection, schedule: Q01DX011 (ip), vehicle: saline) 10 % of control.

(Values after PubChem BioAssay AID180 (DTP/NCI, 2004).)
